Data on one compound can be found in paper PMC12196235, “Enhancing the Pharmacological Properties of Triterpenes Through Acetylation: An Anticancer and Antioxidant Perspective” (Molecules, 2025).

Assay [1] concerns PC-3 (human prostate carcinoma). Kind of assay: MTT assay, PC-3. In kind it is cell-based. A general note: Tetrazolium assays rely on reduction of a dye to a coloured formazan, in cell work by metabolically active cells.
Assay [2] deals with SGC7901 (human gastric carcinoma). The following applies: ref 48, cited from earlier work.
Assay [3] relates to RPMI-8226 (human multiple myeloma). The settings on record: ref 47; read-out: anticancer IC50 (RPMI-8226); cited from earlier work.
For assay [4], the system named is SKOV-3 (human ovarian carcinoma). The assay is described as follows: MTT assay, SKOV-3. The format is cell-based.
Assay [5] concerns SFV (Semliki Forest virus). More on the design: method as in PMID 19839605. The following applies: ref 43; read-out: antiviral IC50 (SFV); cited from earlier work.
The subject of assay [6] is TE-671 (human rhabdomyosarcoma–medulloblastoma). The following applies: ref 47; read-out: anticancer IC50 (TE-671); cited from earlier work.
Assay [7] has as its system HPCC (human cervical carcinoma). The following applies: ref 47; read-out: anticancer IC50 (HPCC); cited from earlier work.
The test system of assay [8] is SK-N-AS (human neuroblastoma). The following applies: ref 47; read-out: anticancer IC50 (SK-N-AS); cited from earlier work.
In assay [9] the test system is HPGBM (human glioblastoma multiforme). The settings on record: ref 47; read-out: anticancer IC50 (HPGBM); cited from earlier work.
Assay [10] has as its system A-549 (human lung carcinoma). The settings on record: ref 47; read-out: anticancer IC50 (A-549); cited from earlier work.
In assay [11] the test system is HDF (human dermal fibroblasts). The assay is described as follows: MTT assay, normal HDF. The format is cell-based. The settings on record: Homo sapiens, Fibroblast, read-out: IC50 (±SD), HDF. The method in brief:
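MTT viability assay; formazan signal taken as proportional to live cells. HDF were kept in Fibroblast Basal Medium, HeLa in DMEM, MCF-7/A-549 in RPMI 1640.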

The test system of assay [12] is T-47D (human breast carcinoma). The following applies: cited from earlier work; for IC50: read-out: anticancer IC50 (T-47D).
The nature of a further assay: DPPH antioxidant assay. The following applies: calculated from Trolox standard curve. The method in brief:
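The CUPRAC reagent was made from 7.5 mM neocuproine, 10 mM CuCl2 and ammonium acetate buffer pH 7.0; the DPPH reagent was a 0.2 mM solution. Both were read spectrophotometrically in plates. Activity is given as % inhibition and as Trolox equivalents from standard curves.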

For assay [13], the system named is FTC-238 (human thyroid carcinoma). The following applies: ref 47; read-out: anticancer IC50 (FTC-238); cited from earlier work.

“And” between values parts separate entries of the source, which are not always exact repeats. Equal entries are not always repeated. Where two headings read alike, the source gives them in different places.

What is called IC50 is the point on the concentration scale where inhibition reaches its midpoint. With `C=C(C)[C@@H]1CC[C@]2(CO)CC[C@]3(C)[C@H](CC[C@@H]4[C@@]5(C)CC[C@H](O)C(C)(C)[C@@H]5CC[C@]43C)[C@@H]12` [5a, betulin], the 50% inhibitory concentration (IC50) in assay [1] (Homo sapiens, MTT assay, PC-3, read-out: IC50 (±SD), PC-3) was 6.22 µM; in [2] (read-out: anticancer IC50 (SGC7901)), 29.4 µM; in [3], 6.4 µM; in [4] (Homo sapiens, SK-OV-3, MTT assay, SKOV-3, read-out: IC50 (±SD), SKOV-3) it was 6.95 µM; in [5], 45.5 µM; in assay [6], 10.3 µM. Further, the IC50 in assay [7] was 3.4 µM; in assay [8] it was 2.5 µM; in assay [9], 3.4 µM; in [10], 7.4 µM; in assay [11], 15.8 µM; in [12] (ref 47), 5.2 µM. The half-maximal inhibitory concentration (IC50) in [12] (ref 49) is 73.2 µM; in assay [13], 6.8 µM. For the same compound, in assay [1] (IC50 HDF / IC50 PC-3), the “Selectivity index (SI), PC-3” value is on record as 2.54. For the same compound, the “anticancer IC50 (SGC7901)” value in [2] is listed as 13 µg/mL. For the same compound, in assay [4] (IC50 HDF / IC50 SKOV-3), the “Selectivity index (SI), SKOV-3” value is listed as 2.27. In assay [12] (ref 49), the “anticancer IC50 (T-47D)” value is 32.4 µg/mL. The “Trolox Equivalent, DPPH Assay” value in “DPPH antioxidant assay” was 0.01077 mg/mL and 0.01077 ± 0.000446 mg/mL.
